From patent US20140127202A1, “ANTITUMOUR COMBINATIONS CONTAINING A VEGF INHIBITING AGENT AND IRINOTECAN” (Aventis Pharma S.A., priority 2007, published 2014)

Key:
[1] = Antitumor activity and toxicity in mice grafted subcutaneously with HCT116 human tumor fragments; format: in vivo; details: mouse, in vivo, iv; irinotecan alone, i.v. twice a day on days 12, 15, 18; read-out: maximum tolerated dose, total injected dose
Protocol: (§1) This effectiveness can be quantified, for example, by the log10 cell kill, which is determined according to the following equation:
(§2) log10 cell kill=T-C (days)/3.34×Td
(§3) in which T-C represents the delay in growth of the cells, which is the average time, in days, for the tumors of the treated group (T) and the tumors of the control group (C) to have reached a predetermined value (1 g for example), and Td represents the time, in days, necessary for the volume of the tumor to double in the control animals [T. H. Corbett et al., Cancer, 40, 2660.2680 (1977); F. M. Schabel et al., Cancer Drug Development, Part B, Methods in Cancer Research, 17, 3-51, New York, Academic Press Inc. (1979)]. A product is considered to be active if log10 cell kill is greater than or equal to 0.7. A product is considered to be very active if log10 cell kill is greater than 2.8.
(§4) The combination, used at its own maximum tolerated dose, in which each of the constituents is present at a dose generally less than or equal to its maximum tolerated dose, will show therapeutic synergy when the log10 cell kill is greater than the value of the log10 cell kill of the best constituent when it is administered alone, and in particular has a superiority of at least one log cell kill.
(§5) The effectiveness of the combinations on solid tumors can be determined experimentally in the following way:
(§6) The animals subjected to the experiment, generally mice, are grafted bilaterally, subcutaneously, with 30 to 60 mg of an HCT116 human tumor fragment (Brattain, M. G., Fine, W. D., Khaled, F. M., Thompson, J. and Brattain, D. E., Heterogeneity of malignant cells from a human colonic carcinoma. Cancer Res., 1981, 41, 1751-1756) on day 0. The animals bearing the tumors are randomized before being subjected to the various treatments and controls. In the case of treatment of tumors of the present invention, the tumors were allowed to develop to a size of between 48 and 294 mg, which made it possible to have a median tumor per group of between 129 and 162 mg. […] Animals bearing tumors were also subjected to the same treatments with the excipient alone in order to be able to dissociate the toxic effect of the excipient from the actual effect of the chemotherapy on the tumor. The chemotherapy was begun on day 12 after the tumor graft. The VEGF Trap injections were given subcutaneously simultaneously with the irinotecan injections, which themselves were given intravenously, according to a daily double injection. These injections were carried out on days 12, 15 and 18 after implantation of the tumor. The various groups of animals are weighed three to four times per week until the maximum weight loss is reached, and then the groups are weighed at least once a week until the end of the trial.
(§7) The tumors are measured two or three times a week until the tumor reaches approximately 2 g or until the death of the animal if the latter occurs before the tumor reaches 2 g. The animals are autopsied at the time of sacrifice.
(§8) The antitumor activity is determined according to the various parameters recorded.
(§9) Vials of 1 cm^3 containing 25 mg of VEGF Trap which are diluted in a buffer of 5 mM phosphate, 5 mM sodium citrate, 100 mM sodium chloride, polysorbate 20 and 20% sucrose are prepared according to the usual technique, for subcutaneous administration. The administration volume per mouse is 0.1 ml. The VEGF Trap is administered once a day, on days 12, 15 and 18 after implantation of the tumor.
(§10) 0.3 ml per mouse is prepared, according to the usual technique, for intravenous administration, from a commercially available solution at 20 mg/ml of irinotecan to be diluted with 5% dextrose in water.
(§11) These solutions are administered simultaneously, after a suitable dilution.
(§12) The treatment with irinotecan is repeated twice a day, with a 4-hour interval, on days 12, 15 and 18 after implantation of the tumor.
(§13) Tumor doubling time=3.2 days.
(§14) Abbreviations used: (T-C) delay in growth of the tumor, Ick=log cell kill.

[2] = system: HCT116 human tumor; assay: as above; format: in vivo
Protocol: as §1, §2, §3, §4, §5, §6, §7, §8, §9, §10, §11, §12, §13, §14

[3] = target: VEGF-B (Homo sapiens, UniProt P49765); details: cited from earlier work
Chain of VEGF-B (P49765 22-207, species assumed): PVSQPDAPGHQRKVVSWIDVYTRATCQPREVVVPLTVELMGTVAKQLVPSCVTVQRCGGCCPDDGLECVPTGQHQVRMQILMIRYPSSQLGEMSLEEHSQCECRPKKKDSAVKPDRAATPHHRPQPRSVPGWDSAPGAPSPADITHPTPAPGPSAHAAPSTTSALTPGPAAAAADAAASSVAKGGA

[4] = target: T1, VEGF-A (Homo sapiens, UniProt P15692); details: in comparison with Avastin (bevacizumab); cited from earlier work
T1 sequence (P15692 207-395 limits assumed): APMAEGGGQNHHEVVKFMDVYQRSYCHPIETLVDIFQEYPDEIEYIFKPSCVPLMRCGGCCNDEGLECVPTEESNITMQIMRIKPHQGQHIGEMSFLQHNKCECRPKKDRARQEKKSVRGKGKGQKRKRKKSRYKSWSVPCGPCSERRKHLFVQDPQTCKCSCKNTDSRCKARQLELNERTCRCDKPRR

[5] = target: PIGF (placental growth factor) (Homo sapiens, UniProt P49763); details: cited from earlier work
Chain of PIGF (placental growth factor) (P49763 19-221): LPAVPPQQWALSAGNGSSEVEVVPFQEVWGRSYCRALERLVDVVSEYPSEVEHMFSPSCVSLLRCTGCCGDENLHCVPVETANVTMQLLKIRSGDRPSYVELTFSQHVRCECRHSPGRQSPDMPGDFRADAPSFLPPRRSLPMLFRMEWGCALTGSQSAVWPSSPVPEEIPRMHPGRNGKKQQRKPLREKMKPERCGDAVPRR

[6] = CPT-11 alone, 12.5 mg/kg per injection i.v., 2x/d days 12, 15, 18, total 75.0 mg/kg, group 9
[7] = CPT-11 alone, 20.2 mg/kg per injection i.v., 2x/d days 12, 15, 18, total 121.2 mg/kg, group 8
[8] = CPT-11 alone, 32.5 mg/kg per injection i.v., 2x/d days 12, 15, 18, total 195.0 mg/kg, group 7
[9] = VEGF Trap alone, 2.5 mg/kg s.c. days 12, 15, 18, total 7.5 mg/kg, group 5
[10] = VEGF Trap alone, 10.0 mg/kg s.c. days 12, 15, 18, total 30.0 mg/kg, group 4
[11] = VEGF Trap alone, 25.0 mg/kg s.c. days 12, 15, 18, total 75.0 mg/kg, group 3
[12] = VEGF Trap alone, 40.0 mg/kg s.c. days 12, 15, 18, total 120.0 mg/kg, group 2

CCc1c2c(nc3ccc(OC(=O)N4CCC(N5CCCCC5)CC4)cc13)-c1cc3c(c(=O)n1C2)COC(=O)[C@]3(O)CC [CPT-11, irinotecan]
MTD [1]: 75 mg/kg
Average time for the tumor to reach 750 mg [2, 6]: 37.6 days
Comments (activity) [2, 6]: active
Comments (dose level) [2, 6]: HNTD
Death due to the product, with day of death [2, 6]: 0/8
Log cell kill [2, 6]: 1.8
Survivors without tumor at day 144 [2, 6]: 0/8
T-C [2, 6]: 19.1 days
Weight loss of the mouse (date of low-point) ([2]; CPT-11 alone, 12.5 mg/kg per injection i.v., 2x/d days 12, 15, 18, total 75.0 mg/kg, group 9, low-point day 21): −15.9%
Comments [2, 7]: Toxic
Death due to the product, with day of death [2, 7]: 0/8
Comments ([2]; CPT-11 alone, 20.2 mg/kg per injection i.v., 2x/d days 12, 15, 18, total 121.2 mg/kg, group 8, listed as irinotecan): Toxicity was observed
Weight loss of the mouse (date of low-point) ([2]; CPT-11 alone, 20.2 mg/kg per injection i.v., 2x/d days 12, 15, 18, total 121.2 mg/kg, group 8, low-point day 19): −21.9%
Weight loss of the mouse (date of low-point) ([2]; CPT-11 alone, 20.2 mg/kg per injection i.v., 2x/d days 12, 15, 18, total 121.2 mg/kg, group 8, low-point day 19, listed as irinotecan): greater than 20%
Comments [2, 8]: Toxic
Death due to the product, with day of death [2, 8]: 0/7
Comments ([2]; CPT-11 alone, 32.5 mg/kg per injection i.v., 2x/d days 12, 15, 18, total 195.0 mg/kg, group 7, listed as irinotecan): Toxicity was observed
Weight loss of the mouse (date of low-point) ([2]; CPT-11 alone, 32.5 mg/kg per injection i.v., 2x/d days 12, 15, 18, total 195.0 mg/kg, group 7, low-point day 19): −23.1%
Weight loss of the mouse (date of low-point) ([2]; CPT-11 alone, 32.5 mg/kg per injection i.v., 2x/d days 12, 15, 18, total 195.0 mg/kg, group 7, low-point day 19, listed as irinotecan): greater than 20%
Death due to the product, with day of death ([2]; CPT-11 alone, 52.4 mg/kg per injection i.v., 2x/d (4 h apart) days 12, 15, 18, total 314.4 mg/kg, group 6, day of death 23): 1/8 (23)
Death due to the product, with day of death ([2]; CPT-11 alone, 52.4 mg/kg per injection i.v., 2x/d (4 h apart) days 12, 15, 18, total 314.4 mg/kg, group 6, day of death 23, listed as irinotecan): a death
Comments ([2]; CPT-11 alone, 52.4 mg/kg per injection i.v., 2x/d days 12, 15, 18, total 314.4 mg/kg, group 6): Toxic
Comments ([2]; CPT-11 alone, 52.4 mg/kg per injection i.v., 2x/d days 12, 15, 18, total 314.4 mg/kg, group 6, listed as irinotecan): Toxicity was observed
Weight loss of the mouse (date of low-point) ([2]; CPT-11 alone, 52.4 mg/kg per injection i.v., 2x/d days 12, 15, 18, total 314.4 mg/kg, group 6, low-point day 21): −27.0%
maximum tolerated dose ([2]; irinotecan alone, i.v. twice a day on days 12, 15, 18): 12.5 mg/kg/inj

VEGF Trap: fusion protein: D2 Ig domain of VEGFR1 fused to D3 Ig domain of VEGFR2, fused to the Fc domain of IgG1
Average time for the tumor to reach 750 mg [2, 9]: 20.2 days
Comments (activity) [2, 9]: inactive
Death due to the product, with day of death [2, 9]: 0/8
Log cell kill [2, 9]: 0.2
Survivors without tumor at day 144 [2, 9]: 0/8
T-C [2, 9]: 1.7 days
Weight loss of the mouse (date of low-point) ([2]; VEGF Trap alone, 2.5 mg/kg s.c. days 12, 15, 18, total 7.5 mg/kg, group 5, low-point day 19): −8.3 (19) %
Average time for the tumor to reach 750 mg [2, 10]: 32.0 days
Comments (activity) [2, 10]: active
Death due to the product, with day of death [2, 10]: 0/8
Log cell kill [2, 10]: 1.3
Survivors without tumor at day 144 [2, 10]: 1/8
T-C [2, 10]: 13.5 days
Weight loss of the mouse (date of low-point) ([2]; VEGF Trap alone, 10.0 mg/kg s.c. days 12, 15, 18, total 30.0 mg/kg, group 4, low-point day 19): −5.0 (19) %
Average time for the tumor to reach 750 mg [2, 11]: 36.8 days
Comments (activity) [2, 11]: active
Death due to the product, with day of death [2, 11]: 0/8
Log cell kill [2, 11]: 1.7
Survivors without tumor at day 144 [2, 11]: 0/8
T-C [2, 11]: 18.3 days
Weight loss of the mouse (date of low-point) ([2]; VEGF Trap alone, 25.0 mg/kg s.c. days 12, 15, 18, total 75.0 mg/kg, group 3, low-point day 13): −2.2 (13) %
Average time for the tumor to reach 750 mg [2, 12]: 36.8 days
Death due to the product, with day of death [2, 12]: 0/8
Log cell kill [2, 12]: 1.7
Survivors without tumor at day 144 [2, 12]: 0/8
T-C [2, 12]: 18.3 days
Comments (activity) ([2]; VEGF Trap alone, 40.0 mg/kg s.c. days 12, 15, 18, total 120.0 mg/kg, group 2 (HDT)): active
Weight loss of the mouse (date of low-point) ([2]; VEGF Trap alone, 40.0 mg/kg s.c. days 12, 15, 18, total 120.0 mg/kg, group 2, low-point day 13): −3.1 (13) %
tolerability ([2]; VEGF Trap alone, all the dosages tested (2.5 to 40 mg/kg/administration s.c.)): well-tolerated
binding to VEGF-B (selectivity profile) [3]: also binds
affinity for VEGF-A compared with Avastin [4]: much higher affinity
binding to PIGF (selectivity profile) [5]: also binds
